The text below walks through data of paper PMC5524213 (Bioconjugate chemistry, 2015).

Data set [1] concerns DMS-53 cells. Nature of the data set: confocal fluorescence microscopy, DMS-53. The class given is cell-based.
The subject of data set [2] is H1299 cells. Put plainly: confocal fluorescence microscopy, H1299. The class given is cell-based.
A short description of data set [3]: absorbance and emission spectra. The class given is physicochemical. The conditions noted are these: for absorbance maximum: Tecan Infinite M-1000 PRO, 230–1000 nm; for absorbance maximum / emission maximum: step 2 nm; for emission maximum: bandwidth 5 nm; for Stokes-shift: conjugate versus free IR800CW.
Data set [4] in a line: photobleaching in ambient light or in the dark. In kind it is physicochemical. The conditions noted are these: 50 nM in PBS, n = 4.
For data set [5], the system named is DMS-53 cells. Put plainly: semi-quantitative confocal microscopy, DMS-53 cells. The class given is cell-based. To be noted: Dmt-Tic-Lys-Cy5 50 nM.
The subject of data set [6] is H1299 cells. Nature of the data set: semi-quantitative confocal microscopy, H1299 cells. To be noted: Dmt-Tic-Lys-Cy5 50 nM. The class given is cell-based.
Data set [7] relates to HCT-116 cells. Put plainly: semi-quantitative confocal microscopy, parental HCT-116 cells. The class given is cell-based. The conditions noted are these: Dmt-Tic-Lys-Cy5 50 nM.
Data set [8] has as its system HCT-116/δOR cells. Put plainly: semi-quantitative confocal microscopy, HCT-116/δOR cells. In kind it is cell-based. To be noted: Dmt-Tic-Lys-Cy5 50 nM.
Data set [9] deals with δOR (Homo sapiens, UniProt P41143). To be noted: cited from earlier work.
Sequence of δOR (P41143 1-357 limits assumed): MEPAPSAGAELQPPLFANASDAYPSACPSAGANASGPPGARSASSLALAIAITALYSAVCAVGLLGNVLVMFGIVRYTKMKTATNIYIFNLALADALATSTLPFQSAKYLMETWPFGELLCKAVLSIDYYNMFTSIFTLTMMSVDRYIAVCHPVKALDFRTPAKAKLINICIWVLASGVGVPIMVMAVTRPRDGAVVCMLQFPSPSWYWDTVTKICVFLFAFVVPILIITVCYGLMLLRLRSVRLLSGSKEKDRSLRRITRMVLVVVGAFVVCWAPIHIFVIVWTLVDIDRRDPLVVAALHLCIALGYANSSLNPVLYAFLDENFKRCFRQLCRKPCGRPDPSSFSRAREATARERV
Data set [10] concerns HCT-116/δOR tumor. The conditions noted are these: dose 4.5 nmol/kg; previous experiments; cited from earlier work.
For data set [11] the following is noted: ref not given, cited from earlier work; for emission maximum, free dye: reported value; for absorbance maximum, free dye: reported for the free dye.
For data set [12] the following is noted: cited from earlier work.
In data set [13] the test system is HCT-116/δOR tumors. In kind it is in vivo, mice. The conditions noted are these: i.v. tail vein.
Data set [14] concerns HCT-116/δOR tumors. In kind it is in vivo, mice. The conditions noted are these: 10 nmol/kg i.v., 24 hours post-injection, n = 4, p ≤ 0.01.
The test system of data set [15] is DMS-53 (δOR+) tumors. In kind it is in vivo, mice. The conditions noted are these: i.v. tail vein; 40, 80 and 160 nmol/kg compared.
Data set [16] has as its system DMS-53 (δOR+) tumors. Put plainly: in vivo selectivity imaging, bilateral H1299 and DMS-53 xenografts, Optix-MX3. Details: species or system mice. The conditions noted are these: 40 nmol/kg i.v., 24 hours post-injection, n = 4, p ≤ 0.01.
Where [17] appears, read: naloxone 5 µM final pre-incubated 15 min, Dmt-Tic-Lys-Cy5 50 nM final.
[18] abbreviates: Dmt-Tic-Lys-Cy5 50 nM, 15 min, room temperature.

pKi: −log10 of the molar value.

On to `C=CCN1CC[C@]23c4c5ccc(O)c4O[C@H]2C(=O)CC[C@@]3(O)[C@H]1C5` [naloxone], for which the “effect of naloxone on cell-surface labeling” value was “blocked” in data set [1] (setting [17]) and “unaffected” in data set [2] (setting [17]).

With Dmt-Tic-Lys-Cy5, in data set [3] (100 µM in PBS), the absorbance maximum was determined as 650 nm. For the same compound, in [3] (100 µM in PBS, emission 280–850 nm), the emission maximum was 676 nm. The photobleaching entry in data set [4] (light versus dark, IVIS-200, Cy5 filter set) is “photobleaches”. Further, the cell-surface labeling entry in [1] (setting [18]) is “cell-surface labeling is observed”; in data set [2] (setting [18]) it was “little labeling was observed”; in data set [5], “Cell-surface labeling was observed”; in [8] it was “Cell-surface labeling was observed”. The labeling result in [6] and in data set [7] was “No labeling was observed” throughout. In data set [9], the “δOR affinity (in words)” value is recorded as “low nM affinity”. Also, the pKi in [9] (read-out: binding affinity for the δOR (Ki)) was 8.52. Further, the “tumor uptake and retention” value in [10] was “selective uptake and retention”.

As for `CC1(C)C(/C=C/C2=C(Oc3ccc(S(=O)(=O)O)cc3)C(=C/C=C3/N(CCCCS(=O)(=O)O)c4ccc(S(=O)(=O)[O-])cc4C3(C)C)/CCC2)=[N+](CCCCCC(=O)O)c2ccc(S(=O)(=O)O)cc21` [IR800CW], in [3], the Stokes-shift turned out to be 15 nm. Besides, in data set [11], the “emission maximum, free dye” value is reported as 789 nm and the “absorbance maximum, free dye” value is 774 nm. The toxicity entry in [12] was “non-toxic”.

For `Cc1cc(O)cc(C)c1C[C@H](N)C(=O)N1Cc2ccccc2C[C@H]1C(=O)N[C@@H](CCCCNC(=O)CCSC1CC(=O)N(CCNC(=O)CCCCCN2C(=CC=C3CCCC(C=CC4=[N+](CCCCS(=O)(=O)[O-])c5ccc(S(=O)(=O)O)cc5C4(C)C)=C3Oc3ccc(S(=O)(=O)O)cc3)C(C)(C)c3cc(S(=O)(=O)O)ccc32)C1=O)C(=O)O` (stereo partly drawn) [Dmt-Tic-IR800], in [3] (100 µM in PBS), the absorbance maximum worked out at 778 nm. In data set [3] (1 mM in PBS, emission 450–850 nm), this compound showed an emission maximum of 832 nm. The Stokes-shift in [3] is on record as 54 nm. In [4] (ICG filter set, except at ≥ 7 hours), the “significance of difference in percent initial fluorescence, light versus dark” value was “not significantly different”. Besides, in data set [4] (ICG filter set, significant at ≥ 7 hours), the “difference in percent of the initial fluorescence intensity, light versus dark” value was 6–13%. Also, the “tumor-to-background ratio, 20 versus 10 nmol/kg” value in [13] (10 nmol/kg selected) is listed as “similar”. The tumor-to-background ratio entry in [13] (20 and 10 nmol/kg versus 5 and 2.5 nmol/kg, all time points) is given as “greatest tumor-to-background ratio”. Besides, in data set [13] (IVIS-200), the dye retention entry was “retained for days”. Besides, in data set [14], the “average fluorescence signal, HCT-116/δOR versus HCT-116 tumors” value is given as “significantly higher average fluorescence signal”. In data set [15], this compound gave an optimal dose of 40 nmol/kg. Also, in data set [16], the “fold enhancement of positive tumor (DMS-53) relative to negative tumor (H1299)” value is given as ~ 4 fold and the “normalized intensity, DMS-53 versus H1299” value is “significantly higher normalized intensity”.

Regarding `CCN1/C(=C/C=C/C=C/C2=[N+](CCCCCC(=O)O)c3ccc(S(=O)(=O)O)cc3C2(C)C)C(C)(C)c2cc(S(=O)(=O)[O-])ccc21` [Cy5], in data set [11], the “emission maximum, free dye” value is listed as 670 nm and the “absorbance maximum, free dye” value was 649 nm.
